Where “and” joins values, the source holds several entries; their conditions need not be identical. Equal entries are not always repeated.
What was measured:
ECL cell = settings: cited from earlier work
Reg I = assay: Real-time RT-PCR of growth factor expression: Reg I; format: in vivo; settings: quantitative real-time PCR; versus non drug treated mice
Protocol: Real-time RT-PCR assay of growth factors and cytokine expression profiles Total RNAs were extracted from a sample of whole stomach from each animal with Trizol (Invitrogen, Calif.) and five micrograms of total RNA were used for first strand cDNA synthesis using Superscript II cDNA amplification System (Invitrogen, Calif.) following manufacturer's instructions. Real-time PCR was performed as above using RT-PCR primers for each gene as listed below. All primers were designed using Lasergene ver5.0 software (DNASTAR inc., Madison, Wis.). Results were calculated by minus delta delta threshold cycle (-ΔΔCt) method (Livak, K. J. et al., 2001). Briefly, the threshold cycle Ct1 of each sample reaction was deducted from the threshold cycle Ct2 of GAPDH reaction for normalization, and then deducted from the threshold cycle Ct3 of calibration control (45 cycles in this experiment), i.e., the final result was represented by the formula; Ct3-(Ct1-Ct2). […]

[1] = system: enterochromaffin-like (ECL) cell; assay: Gastric histology of loxtidine-treated South African rat; format: in vivo, Mastomys (African multimammate rat); settings: treated for 16 weeks
Text: FIG. 2: Characteristics of loxtidine.

[2] = system: H. felis-infected INS-GAS mice; assay: Stomach wet-weight and gross stomach size; format: in vivo
Text: The control group (A) included INS-GAS mice that were infected with H. felis but untreated, resulting in a total of 4 groups of mice (A-D). The INS-GAS (male) mice entered the study at 6-8 weeks of age, and were housed in 4 cages. There were 21 mice in each group, seven of which were euthanized after 3 months and 14 of which were euthanized after 6-7 months. The doses of medication are shown. Loxtidine was given in the drinking water while YF476 was given by subcutaneous injection once a week.
FIG. 4: Closed stomachs from INS-GAS/H. felis mice. Gross photos of representative stomachs from each of the four groups of 6 month H. felis-infected INS-GAS mice are shown. Mice were euthanized by CO2 inhalation and the stomachs were removed by […] of the esophagus and duodenum.
(§1) Mice in group III were treated orally with the histamine H2 receptor antagonist loxtidine (in drinking water) at a dose of 0.5 g/L, while group IV mice received both drugs. For the 3 months drug study of inhibitory effects on maximal acid secretion, gastric atrophy, hyperplasia and dysplasia, 8 mice were prepared for each group. For the 6 months drug study of inhibitory effects on gastric carcinogenesis, 17 mice were prepared for each group.

[3] = system: H. felis-infected INS-GAS mice; assay: Maximal gastric acid output by pyloric ligation; format: in vivo; settings: 3 months treatment; for Reduction of gastric acid output: acid secretion over 4 hours
Protocol: as §1
The pyloric ligation method was used to measure maximal acid secretion as previously described (Chen, D. et al., 2004). Briefly, mice were fasted overnight and anesthetized by isoflurane inhalation. The abdomen was incised by midline celiotomy, the pylorus ligated firmly, and the abdomen closed with surgical sutures. After 4 hours, the mice were euthanized and gastric juice collected. The acidity of gastric juice was measured with a pH meter (AR 25; Fisher Scientific, Houston, Tex.) by 0.01 N NaOH titration and results expressed as μEq.

[4] = system: H. felis-infected INS-GAS mice; assay: Gastric mucosa histological evaluation and scoring; format: in vivo; settings: for Corpus histological score: Atrophy / Corpus histological score: Dysplasia / Corpus histological score: Hyperplasia / Corpus histological score: Inflammation: scale 0 to 4, mean ± SD
Text: The insulin-gastrin (INS-GAS) transgenic mice (FVB/N background) have been described previously (Wang, T. C. et al., 2000; Wang T. C. et al., 1993) and were free of specific pathogens. Animals were housed in microisolator, solid-bottomed polycarbonate cages, fed a commercially prepared pelleted diet, and given water ad libitum. One hundred twenty four (124) male INS-GAS mice at 2 or 3 months of age were inoculated with Helicobacter felis (ATCC 49179) as previously described (Wang, T. C. et al., 2000). Infection status was confirmed at 14 weeks and 26 weeks post inoculation by enzyme-linked immunosorbent assay (ELISA) to measure immunoglobulin IgG antibody to H. felis, and by quantitative real-time PCR assays of gastric corpus tissue at necropsy as described below. All experiments were approved by the Institutional Animal Care and Use Committee of University of Massachusetts Medical School.
as §1
The proton pump inhibitor omeprazole was purchased from Sigma (St. Louis Mo.) and dissolved in dimethylsulfoxide (DMSO)/PEG300, a 1:1 mixture at the concentration of 40 mg/ml, and injected intraperitoneally daily at the dose of […] (=350 micromole/kg) for 3 months. Twenty four (24) mice were divided into four groups. Mice in group A were controls treated with vehicle only, whereas group B mice were treated with omeprazole alone. Group C and D mice were treated with combination of omeprazole and YF476 or loxtidine, respectively.
At necropsy, linear strips extending from the squamocolumnar junction through the proximal duodenum were fixed in 10% neutral-buffered formalin, paraffin-embedded, cut at 5 microns, and stained with hematoxylin and eosin. Indices of injury in the gastric cardia/corpus and antrum were scored on an ordinal scale from 0 to 4 in increments of 0.5 by a single veterinary pathologist (A.B.R.) blinded to treatment groups. Paraffin-embedded sections were also stained with the Warthin-Starry silver staining method for detection of H.felis as previously described (Fox, J. G. et al., 2003).

1-methyl-5-((3-(3-(1-piperidinylmethyl)phenoxy)propyl)amino)-1H-1,2,4-triazole-3-ethanol [Loxtidine]
Tumor induction in rats (ECL cell; rat, in vivo): induction of ECLomas | Duration of administration after which ECL cell hyperplasia was seen (ECL cell; rats, Poynter et al.): 39 days | Reg I expression level (Reg I): markedly reduced | Gastric histology finding [1]: enterochromaffin-like (ECL) cell neoplasia | Gross stomach size ([2]; 6 month H. felis-infected mice): significant reduction in apparent size | Stomach weight after treatment ([2]; untreated 1831 / ~1830 mg): ~400 mg and ~800 mg | Maximal gastric acid output (MAO), effect in words [3]: significantly inhibited | Reduction of gastric acid output [3]: 80% | Reduction of gastric acid output ([3]; listed as loxtidine): 83% | Histological finding: gastric atrophy, hyperplasia, dysplasia ([4]; 3 months treatment, hematoxylin and eosin): partially blocked | Histological finding: gastric atrophy, hyperplasia, dysplasia ([4]; 3 months treatment, hematoxylin and eosin, listed as loxtidine): partial inhibition of gastric atrophy and foveolar hyperplasia | Histological finding: gastric atrophy, hyperplasia, dysplasia ([4]; 3 months treatment, hematoxylin and eosin, listed as loxtidine alone): slight inhibition of Helicobacter-mediated gastric atrophy | Corpus histological score: Atrophy ([4]; 3 months treatment, n = 4): 1.83 ± 0.29 | Corpus histological score: Dysplasia ([4]; 3 months treatment, n = 4): 1.00 ± 0.50 | Corpus histological score: Hyperplasia ([4]; 3 months treatment, n = 4): 1.33 ± 0.58 | Corpus histological score: Inflammation ([4]; 3 months treatment, n = 4): 1.83 ± 0.29 | Histological finding: gastric neoplasia / carcinogenesis ([4]; 6 months treatment, hematoxylin and eosin): partial inhibition of progression to neoplasia | Corpus histological score: Atrophy ([4]; 6 months treatment, n = 5): 2.67 ± 0.61 | Corpus histological score: Dysplasia ([4]; 6 months treatment, n = 5): 2.17 ± 1.29a | Corpus histological score: Hyperplasia ([4]; 6 months treatment, n = 5): 2.42 ± 1.07a | Corpus histological score: Inflammation ([4]; 6 months treatment, n = 5): 2.33 ± 1.17

Reference: US20050042283A1, “Histamine and CCK2/gastrin receptor blockade in the treatment of acid-peptic disease and cancer” (UNIVERSITY OF MASSACHUSETTS, priority 2003, published 2005)
